# Measured values taken from patent US7956074B2, “Aryl-isoxazolo-4-yl-oxadiazole derivatives” (Hoffman-La Roche Inc., priority 2005, dated 2011).
# Molecular target: T1, GABA A receptor α5β3γ2 (Homo sapiens, UniProt P18507+P31644)
# T1 construct: expressed in transfected cells; host or cells: HEK293 cells, transiently transfected; membranes prepared
# Assay: [3H]flumazenil competition binding, human GABA A α5β3γ2
# Conditions: competition for [3H]flumazenil (0.5 nM) binding, HEK293 cells expressing human (transiently transfected) α5β3γ2; means of two determinations; read-out: Ki[nM] hα5
# Procedure, shortened: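 HEK293 membranes expressing GABA-A receptors (human transiently, rat stably transfected) were used for [3H]flumazenil competition in Krebs-tris buffer, pH 7.5. Incubation ran 1 h at 4 °C to equilibrium, followed by filtration and scintillation counting. Ki values are means of two determinations.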
row,SMILES,Ki [nM]
1,"COCc1onc(-c2ccccc2)c1-c1nnc(-c2ccc(F)cc2OC)o1 [Example 91, 2-(4-Fluoro-2-methoxy-phenyl)-5-(5-methoxymethyl-3-phenyl-isoxazol-4-yl)-[1,3,4]oxadiazole]",112
2,"COc1cc(F)ccc1-c1nnc(-c2c(-c3ccccc3)noc2CO)o1 [Example 92, {4-[5-(4-Fluoro-2-methoxy-phenyl)-[1,3,4]oxadiazol-2-yl]-3-phenyl-isoxazol-5-yl}-methanol]",293
3,"COc1ncccc1-c1nnc(-c2c(-c3ccccc3)noc2C)o1 [Example 93, 2-Methoxy-3-[5-(5-methyl-3-phenyl-isoxazol-4-yl)-[1,3,4]oxadiazol-2-yl]-pyridine]",22.8
4,"COc1cc(N2CCOCC2)ccc1-c1nnc(-c2c(-c3cccc(Cl)c3)noc2C)o1 [Example 94, 4-(4-{5-[3-(3-Chloro-phenyl)-5-methyl-isoxazol-4-yl]-[1,3,4]oxadiazol-2-yl}-3-methoxy-phenyl)-morpholine]",19.3
5,"COc1cc(N2CCOCC2)ccc1-c1nnc(-c2conc2-c2ccccc2)o1 [Example 95, 4-{3-Methoxy-4-[5-(3-phenyl-isoxazol-4-yl)-[1,3,4]oxadiazol-2-yl]-phenyl}-morpholine]",44.5
6,"COc1cc(N2CCOCC2)ccc1-c1nnc(-c2c(-c3ccccc3)noc2-c2ccccc2)o1 [Example 96, 4-{4-[5-(3,5-Diphenyl-isoxazol-4-yl)-[1,3,4]oxadiazol-2-yl]-3-methoxy-phenyl}-morpholine]",15.3
7,"COc1cc(N2CCOCC2)ccc1-c1nnc(-c2c(-c3ccccc3Cl)noc2C)o1 [Example 97, 4-(4-{5-[3-(2-Chloro-phenyl)-5-methyl-isoxazol-4-yl]-[1,3,4]oxadiazol-2-yl}-3-methoxy-phenyl)-morpholine]",105
8,"COc1cc(N2CCOCC2)ccc1-c1nnc(-c2conc2-c2ccc(F)cc2)o1 [Example 98, 4-(4-{5-[3-(4-Fluoro-phenyl)-isoxazol-4-yl]-[1,3,4]oxadiazol-2-yl}-3-methoxy-phenyl)-morpholine]",49
9,"COc1ccc(-c2nnc(-c3c(-c4ccccc4)noc3C)o2)c(Cl)n1 [Example 99, 2-Chloro-6-methoxy-3-[5-(5-methyl-3-phenyl-isoxazol-4-yl)-[1,3,4]oxadiazol-2-yl]-pyridine]",95.8
10,"COc1ccc(-c2nnc(-c3c(-c4ccccc4)noc3C)o2)c(OC)n1 [Example 100, 2,6-Dimethoxy-3-[5-(5-methyl-3-phenyl-isoxazol-4-yl)-[1,3,4]oxadiazol-2-yl]-pyridine]",24
11,"COc1cc(N2CCOCC2)ccc1-c1nnc(-c2c(-c3ccc(F)cc3)noc2C)o1 [Example 101, 4-(4-{5-[3-(4-Fluoro-phenyl)-5-methyl-isoxazol-4-yl]-[1,3,4]oxadiazol-2-yl}-3-methoxy-phenyl)-morpholine]",14.5
12,"COc1cc(N2CCOCC2)ccc1-c1nnc(-c2c(-c3cccnc3)noc2C)o1 [Example 102, 4-{3-Methoxy-4-[5-(5-methyl-3-pyridin-3-yl-isoxazol-4-yl)-[1,3,4]oxadiazol-2-yl]-phenyl}-morpholine]",146
13,"COc1cc(N2CCOCC2)ccc1-c1nnc(-c2c(-c3ccc(C(F)(F)F)cc3)noc2C)o1 [Example 103, 4-(3-Methoxy-4-{5-[5-methyl-3-(4-trifluoromethyl-phenyl)-isoxazol-4-yl]-[1,3,4]oxadiazol-2-yl}-phenyl)-morpholine]",47.6
14,"COc1cc(N2CCOCC2)ccc1-c1nnc(-c2c(-c3ccc(C)cc3)noc2C)o1 [Example 104, 4-(3-Methoxy-4-{5-[5-methyl-3-(4-methyl-phenyl)-isoxazol-4-yl]-[1,3,4]oxadiazol-2-yl}-phenyl)-morpholine]",12.1
15,"COc1cc(N2CCOCC2)ccc1-c1nnc(-c2c(-c3ccccc3)noc2Cl)o1 [Example 105, 4-{4-[5-(5-Chloro-3-phenyl-isoxazol-4-yl)-[1,3,4]oxadiazol-2-yl]-3-methoxy-phenyl}-morpholine]",27.1
16,"COc1cc(N2CCOCC2)ccc1-c1nnc(-c2c(-c3ccccc3)noc2N(C)C)o1 [Example 106, {4-[5-(2-Methoxy-4-morpholin-4-yl-phenyl)-[1,3,4]oxadiazol-2-yl]-3-phenyl-isoxazol-5-yl}-dimethyl-amine]",165
17,"COc1cc(N2CCOCC2)ccc1-c1nnc(-c2c(-c3ccccc3)noc2N2CCOCC2)o1 [Example 107, 4-{4-[5-(2-Methoxy-4-morpholin-4-yl-phenyl)-[1,3,4]oxadiazol-2-yl]-3-phenyl-isoxazol-5-yl}-morpholine]",31.1
18,"COc1cc(N2CCOCC2)ccc1-c1nnc(-c2c(-c3cccc(F)c3)noc2C)o1 [Example 108, 4-(4-{5-[3-(3-Fluoro-phenyl)-5-methyl-isoxazol-4-yl]-[1,3,4]oxadiazol-2-yl}-3-methoxy-phenyl)-morpholine]",11.3

row,SMILES,Ki [nM]
1,"COc1cc(N2CCOCC2)ccc1-c1nnc(-c2c(-c3ccc(Cl)cc3)noc2C)o1 [Example 109, 4-(4-{5-[3-(4-Chloro-phenyl)-5-methyl-isoxazol-4-yl]-[1,3,4]oxadiazol-2-yl}-3-methoxy-phenyl)-morpholine]",2.2
2,"COc1cc(N2CCOCC2)ccc1-c1nnc(-c2c(-c3cccs3)noc2C)o1 [Example 110, 4-{3-Methoxy-4-[5-(5-methyl-3-thiophen-2-yl-isoxazol-4-yl)-[1,3,4]oxadiazol-2-yl]-phenyl}-morpholine]",19.5
3,"CCNc1onc(-c2ccccc2)c1-c1nnc(-c2ccc(N3CCOCC3)cc2OC)o1 [Example 111, Ethyl-{4-[5-(2-methoxy-4-morpholin-4-yl-phenyl)-[1,3,4]oxadiazol-2-yl]-3-phenyl-isoxazol-5-yl}-amine]",4.9
4,"Cc1onc(-c2ccccc2)c1-c1nnc(-c2ccc(N3CCC(F)(F)CC3)cc2)o1 [Example 112, 4,4-Difluoro-1-{4-[5-(5-methyl-3-phenyl-isoxazol-4-yl)-[1,3,4]oxadiazol-2-yl]-phenyl}-piperidine]",31.2
5,"COc1cc(N2CCOCC2)ccc1-c1nnc(-c2c(-c3ccccc3)noc2-n2cccn2)o1 [Example 113, 4-{3-Methoxy-4-[5-(3-phenyl-5-pyrazol-1-yl-isoxazol-4-yl)-[1,3,4]oxadiazol-2-yl]-phenyl}-morpholine]",7.4
6,"COc1cc(N2CCOCC2)c(F)cc1-c1nnc(-c2c(-c3ccccc3)noc2C)o1 [Example 114, 4-{2-Fluoro-5-methoxy-4-[5-(5-methyl-3-phenyl-isoxazol-4-yl)-[1,3,4]oxadiazol-2-yl]-phenyl}-morpholine]",6
7,"COc1cc(N2CCOCC2)ccc1-c1nnc(-c2c(-c3ccccc3)noc2C#N)o1 [Example 115, 4-[5-(2-Methoxy-4-morpholin-4-yl-phenyl)-[1,3,4]oxadiazol-2-yl]-3-phenyl-isoxazole-5-carbonitrile]",131
8,"COc1cc(N2CCSCC2)c(F)cc1-c1nnc(-c2c(-c3ccccc3)noc2C)o1 [Example 116, 4-{2-Fluoro-5-methoxy-4-[5-(5-methyl-3-phenyl-isoxazol-4-yl)-[1,3,4]oxadiazol-2-yl]-phenyl}-thiomorpholine]",4.5
9,"COc1cc(N2CCS(=O)(=O)CC2)c(F)cc1-c1nnc(-c2c(-c3ccccc3)noc2C)o1 [Example 117, 4-{2-Fluoro-5-methoxy-4-[5-(5-methyl-3-phenyl-isoxazol-4-yl)-[1,3,4]oxadiazol-2-yl]-phenyl}-thiomorpholine 1,1-dioxide]",2
10,"Cc1onc(-c2ccccc2)c1-c1nnc(-c2cc(F)c(F)cc2F)o1 [Example 118, 2-(5-Methyl-3-phenyl-isoxazol-4-yl)-5-(2,4,5-trifluoro-phenyl)-[1,3,4]oxadiazole]",149
11,"Cc1onc(-c2ccccc2)c1-c1nnc(-c2cc(F)c(N3CCSCC3)cc2F)o1 [Example 119, 4-{2,5-Difluoro-4-[5-(5-methyl-3-phenyl-isoxazol-4-yl)-[1,3,4]oxadiazol-2-yl]-phenyl}-thiomorpholine]",24.3
12,"Cc1onc(-c2ccccc2)c1-c1nnc(-c2cc(F)c(N3CCS(=O)(=O)CC3)cc2F)o1 [Example 120, 4-{2,5-Difluoro-4-[5-(5-methyl-3-phenyl-isoxazol-4-yl)-[1,3,4]oxadiazol-2-yl]-phenyl}-thiomorpholine 1,1-dioxide]",13.5
13,"Cc1onc(-c2ccccc2)c1-c1nnc(-c2cccs2)o1 [Example 121, 2-(5-Methyl-3-phenyl-isoxazol-4-yl)-5-thiophen-2-yl-[1,3,4]oxadiazole]",115
14,"Cc1onc(-c2ccccc2)c1-c1nnc(-c2ccsc2)o1 [Example 122, 2-(5-Methyl-3-phenyl-isoxazol-4-yl)-5-thiophen-3-yl-[1,3,4]oxadiazole]",139
15,"COc1cc(N2CCOCC2)ccc1-c1nnc(-c2c(-c3ccsc3)noc2C)o1 [Example 123, 4-{3-Methoxy-4-[5-(5-methyl-3-thiophen-3-yl-isoxazol-4-yl)-[1,3,4]oxadiazol-2-yl]-phenyl}-morpholine]",14.4
16,"COCCNc1ccc(-c2nnc(-c3c(-c4ccccc4)noc3C)o2)c(OC)c1 [Example 124, (2-Methoxy-ethyl)-{3-methoxy-4-[5-(5-methyl-3-phenyl-isoxazol-4-yl)-[1,3,4]oxadiazol-2-yl]-phenyl}-amine]",8.2
17,"Cc1onc(-c2ccccc2)c1-c1nnc(-c2cccc3[nH]cnc23)o1 [Example 125, 4-[5-(5-Methyl-3-phenyl-isoxazol-4-yl)-[1,3,4]oxadiazol-2-yl]-1H-benzoimidazole]",26.8
18,"COc1cc(NCCSC)c(F)cc1-c1nnc(-c2c(-c3ccccc3)noc2C)o1 [Example 126, {2-Fluoro-5-methoxy-4-[5-(5-methyl-3-phenyl-isoxazol-4-yl)-[1,3,4]oxadiazol-2-yl]-phenyl}-(2-methylsulfanyl-ethyl)-amine]",4.5
